In patent US20210386730A1 (priority 2020, published 2021):

Experiment: Solubility of indacaterol maleate and glycopyrrolate
Type: physicochemical
Experimental: In a formulation it is necessary to be sure that the active pharmaceutical ingredients (API) are dissolved completely.
0.02% tween-80: […].
pH=3 0.02% tween-80: […], adjust pH to 3 with hydrochloric acid. Other solutions were similarly prepared. The percentages mentioned above are percentages by weight.

Solubility (0.02% tween-80): 29.52 mg/100 ml | Solubility (Purified water): 29.95 mg/100 ml | Solubility (in words) (cyclodextrin added): improved significantly | Solubility (in words) (in purified water): not sufficiently soluble | Solubility (pH = 3 0.02% tween-80): 32.17 mg/100 ml | Solubility (pH = 3 2.5% SBECD solution): 351.46 mg/100 ml | Solubility (pH = 3 5% SBECD solution): 539.5 mg/100 ml | Solubility (pH = 3 Purified water): 31.21 mg/100 ml | Solubility (pH = 3.5 0.02% tween-80): 30.8 mg/100 ml | Solubility (pH = 3.5 Purified water): 29.97 mg/100 ml | Solubility (pH = 4 0.02% tween-80): 30.91 mg/100 ml | Solubility (pH = 4 0.5% SBECD solution): 55.523 mg/100 ml | Solubility (pH = 4 1% SBECD solution): 161.866 mg/100 ml | Solubility (pH = 4 2% SBECD solution): 211.4 mg/100 ml | Solubility (pH = 4 5% SBECD solution): 316 mg/100 ml | Solubility (pH = 4 Purified water): 30.82 mg/100 ml | Solubility (pH = 4.5 0.02% tween-80): 30.41 mg/100 ml | Solubility (pH = 4.5 Purified water): 30.32 mg/100 ml | Solubility (pH = 5 0.02% tween-80): 30.84 mg/100 ml | Solubility (pH = 5 Purified water): 28.98 mg/100 ml | Solubility (in words) (tween 80 added): insufficient
Structure (SMILES): CCc1cc2c(cc1CC)CC(NC[C@H](O)c1ccc(O)c3[nH]c(=O)ccc13)C2.O=C(O)/C=C\C(=O)O [Indacaterol Maleate, (R)-5-[2-(5,6-Diethylindan-2-ylamino)-1-hydroxyethyl]-8-hydroxy-1H-quinolin-2-one maleate]
